Reference: patent US6407108B1, “1,2,4-triazolo(4,3-b)pyrido(3,2-d)pyridazine derivatives and pharmaceutical compositions containing them” (Almirall Prodesfarma, S.A., priority 1997, dated 2002)

Tests used:
[1] = molecular target: cyclic nucleotide phosphodiesterase 4 from guinea-pig hearts; experiment: Inhibition of cyclic nucleotide phosphodiesterase 4 (96-well microtiter plates, Verghese et al.); format: biochemical; details: PDE 4 from guinea-pig hearts; read-out: PDE4 IC50
Description: The inhibition of cyclic nucleotide phosphodiesterase 4 from guinea-pig hearts was performed using 96-well microtiter plates as described by Verghese et al., (Molecular Pharmacology, 47, 1164-1171 (1995)).

| Compound | IC50 [1] [µM] | melting point [°C] |
| --- | --- | --- |
| c1ccc(-c2nn3c(C4CC4)nnc3c3cccnc23)cc1 [Compound 12, 3-cyclopropyl-6-phenyl-1,2,4-triazolo[4,3-b]pyrido[3,2-d]pyridazine] | 3 | 244.3 |
| Clc1cccc(-c2nn3c(CC4CC4)nnc3c3cccnc23)c1 [Compound 60] | 0.1 | 136 |
| O=[N+]([O-])c1cccc(-c2nn3c(CC4CCC4)nnc3c3cccnc23)c1 [Compound 113, 3-cyclobutylmethyl-6-(3-nitrophenyl)-1,2,4-triazolo[4,3-b]pyrido[3,2-d]pyridazine] | 0.2 | 150 |
| O=[N+]([O-])c1cccc(-c2nn3c(CC4CC4)nnc3c3cccnc23)c1 [Compound 112, 3-cyclopropylmethyl-6-(3-nitrophenyl)-1,2,4-triazolo[4,3-b]pyrido[3,2-d]pyridazine] | 0.7 | 164 |
| CC(C)(C)c1nnc2c3cccnc3c(-c3ccccc3)nn12 [Compound 8, 3-t-butyl-6-phenyl-1,2,4-triazolo[4,3-b]pyrido[3,2-d]pyridazine] |  | 188.1 |
| Fc1cccc(-c2nn3c(CC4CCCC4)nnc3c3cccnc23)c1 [Compound 47] | 0.7 | 145 |
| Clc1cccc(-c2nn3c(CC4CCC4)nnc3c3cccnc23)c1 [Compound 61] | 2 | 156 |

Second part, the compound after the results:

| IC50 [1] [µM] | melting point [°C] | Compound |
| --- | --- | --- |
| 0.3 | 179.7 | CC(C)Cc1nnc2c3cccnc3c(-c3ccccc3)nn12 [Compound 7] |
| 2 | 162.9 | CCCCc1nnc2c3cccnc3c(-c3ccccc3)nn12 [Compound 6] |
| 0.2 | 135 | CC(C)Cc1nnc2c3cccnc3c(-c3ccc(F)cc3)nn12 [Compound 31, 6-(4-fluorophenyl)-3-isobutyl-1,2,4-triazolo[4,3-b]pyrido[3,2-d]pyridazine] |
| 10 |  | CC(C)Cc1nnc2c3ccccc3c(-c3ccccc3)nn12 [Compound A, 3-isobutyl-6-phenyl-1,2,4-triazolo[3,4-a]phthalazine, reference compound] |
| 0.2 | 113 | CC(C)Cc1nnc2c3cccnc3c(-c3cccc(Cl)c3)nn12 [Compound 55] |
| 0.04 | 178 | CC(C)Cc1nnc2c3cccnc3c(-c3cccc([N+](=O)[O-])c3)nn12 [Compound 109] |
